Laboratory results taken from patent US6740335B1, “Liposomal camptothecin formulations” (priority 1997, dated 2004).

How the values were obtained:
[1] = system: H460 (Lung, Non-Small Cell); test: 3H-thymidine incorporation cytotoxicity assay, H460; format: cell-based, human; conditions: H460, 42 h
Description: (§1) In vitro efficacy screening has been performed using GI147211 and liposomal formulations of GI147211. […] Standard tumor cell-based cytototoxicity assays assessing ^3H-thymidine incorporation were performed.
(§2) Tumor cells were seeded into 96-well tissue culture plates (1×10^4 cells/well)≡4 h prior to experimentation. […] Positive and negative (Tris treated) control groups were included on each assay plate. Tumor cells were then labeled with 0.25 μCi of [methyl-^3H] thymidine and incubated for 42 h under tissue culture conditions (37° C., 5% CO2, 100% relative humidity), except for C6, U251, A673 and B16-F1 cells which were incubated for 24 h. Cells were then lysed, harvested onto glass-fiber filters and unincorporated [methyl-^3H] thymidine removed by filter washing. Filters were processed for scintillation counting and cpm-^3H/well determined. […] Data are presented from multiple sets of experimentation, involving multiple liposomal formulations of GI147211.

U87-MG (Astrocytoma) = test: 3H-thymidine incorporation cytotoxicity assay, U87-MG; format: cell-based, human; conditions: 42 h
Description: as §1, §2

MDA-MB-468 (Breast) = test: 3H-thymidine incorporation cytotoxicity assay, MDA-MB-468; format: cell-based, human; conditions: MDA-MB-468, 42 h
Description: as §1, §2

HT-29 (Colon) = test: 3H-thymidine incorporation cytotoxicity assay, HT-29; format: cell-based, human; conditions: HT-29, 42 h
Description: as §1, §2

U251 (Glioblastoma) = test: 3H-thymidine incorporation cytotoxicity assay, U251; format: cell-based, human; conditions: U251, 24 h
Description: as §1, §2

[2] = system: KB (oralpharyngial carcinoma); test: 3H-thymidine incorporation cytotoxicity assay, KB; format: cell-based, human; conditions: 42 h
Description: as §1, §2

ES2 Tumor Xenograft = test: Repeat dose efficacy at equal toxic doses, ES2 xenograft; conditions: ES2, 16 mg/kg, days 1, 8 and 15
Description: In all the studies performed, subcutaneous tumors implanted on the anterior flank of nude mice were allowed to grow to an established size of 200+/−50 mm^3 prior to dosing drugs.
Drugs were dosed on days 1,8 and 15.

A673 (Rhabdomyosarcoma) = test: 3H-thymidine incorporation cytotoxicity assay, A673; format: cell-based, human; conditions: A673, 24 h
Description: as §1, §2

[3] = system: DU-145 (prostate carcinoma); test: 3H-thymidine incorporation cytotoxicity assay, DU-145; format: cell-based, human; conditions: DU-145, 42 h
Description: as §1, §2

[4] = system: B16-F1 (Melanoma, murine); test: 3H-thymidine incorporation cytotoxicity assay, B16-F1; format: cell-based; conditions: B16-F1, 24 h
Description: as §1, §2

[5] = system: SKOV-3 (ovarian carcinoma); test: 3H-thymidine incorporation cytotoxicity assay, SKOV-3; format: cell-based, human; conditions: SKOV-3, 42 h
Description: as §1, §2

BT-20 (Breast) = test: 3H-thymidine incorporation cytotoxicity assay, BT-20; format: cell-based, human; conditions: BT-20, 42 h
Description: as §1, §2

U937 (Lymphoma) = test: 3H-thymidine incorporation cytotoxicity assay, U937; format: cell-based, human; conditions: U937, 42 h
Description: as §1, §2

[6] = system: KBV (oralpharyngial carcinoma, vincristine resistant phenotype); test: 3H-thymidine incorporation cytotoxicity assay, KBV; format: cell-based, human; conditions: 42 h
Description: as §1, §2

MCF-7 (Breast) = test: 3H-thymidine incorporation cytotoxicity assay, MCF-7; format: cell-based, human; conditions: MCF-7, 42 h
Description: as §1, §2

LS-513 (Cecum) = test: 3H-thymidine incorporation cytotoxicity assay, LS-513; format: cell-based, human; conditions: LS-513, 42 h
Description: as §1, §2

LOX (melanoma) = test: 3H-thymidine incorporation cytotoxicity assay, LOX; format: cell-based, human; conditions: 42 h
Description: as §1, §2

ES-2 (ovarian carcinoma) = test: 3H-thymidine incorporation cytotoxicity assay, ES-2; format: cell-based, human; conditions: ES-2, 42 h
Description: as §1, §2

In the case of `CC[C@@]1(O)C(=O)OCc2c1cc1n(c2=O)Cc2cc3c(CN(C)C)c(O)ccc3nc2-1` [Topotecan], the “Median IC50” value [1] is reported as 0.0209 µg/mL, the “Median IC50” value (U87-MG (Astrocytoma)) is reported as 0.0216 µg/mL and the “Median IC50” value (MDA-MB-468 (Breast)) is reported as 0.0473 µg/mL. The “Median IC50” value (HT-29 (Colon)) was 0.00415 µg/mL, the “Median IC50” value (U251 (Glioblastoma)) was 0.0131 µg/mL and the “Median IC50” value [2] was 0.0336 µg/mL. The Cures (ES2 Tumor Xenograft) was 0, the “Log Cell Kill” value (ES2 Tumor Xenograft) was 0.58 and the “Maximum Body Weight loss” value (ES2 Tumor Xenograft) was 16%. For the same molecule, the “T − C (to reach 400% tumor volume increase)” value (ES2 Tumor Xenograft) was 7.4 days, the “Toxic Deaths” value (ES2 Tumor Xenograft) was 3 and the “Median IC50” value (A673 (Rhabdomyosarcoma)) was 0.00604 µg/mL. The “Median IC50” value [3] was 0.0135 µg/mL, the “Median IC50” value [4] was 0.393 µg/mL and the “Median IC50” value [5] was 0.00518 µg/mL. The “Median IC50” value (BT-20 (Breast)) was 0.0035 µg/mL, the “Median IC50” value (U937 (Lymphoma)) was 0.00903 µg/mL and the “Median IC50” value [6] was 0.611 µg/mL. For the same molecule, the “Median IC50” value (MCF-7 (Breast)) was 0.23 µg/mL, the “Median IC50” value (LS-513 (Cecum)) was 0.016 µg/mL and the “Median IC50” value (LOX (melanoma)) was 0.00492 µg/mL. The “Median IC50” value (ES-2 (ovarian carcinoma)) was 0.00389 µg/mL.
